Counter-ions that a name gives are not always drawn.
Key:
in vivo = conditions: Brown Norway, iv
Procedure: This intravenous dosing solution is administered to a Brown Norway rat. After a given interval from the administration, for example, 24, 72 and 168 hours after the administration, blood is collected. Then, the rat is euthanized while the eyeballs are excised. A posterior eye tissue such as the choroid and/or the sclera, the retina, or the optic nerve is harvested therefrom. A given amount of an aqueous solution containing an organic solvent (e.g., a 50 vol % methanol solution) is added to the harvested posterior eye tissue, which is then homogenized, for example, to prepare an assay sample. The drug concentration in this assay sample can be measured using a liquid chromatograph-tandem mass spectrometer (LC/MS/MS) to measure the compound concentration in the posterior eye tissue in the case of systemic administration. The elimination half-life of the compound in the posterior eye tissue can be further calculated from time-dependent change in compound concentration in the posterior eye tissue.
Each compound was dissolved in DMA. […] Each intravenous dosing solution was administered (0.5 mL/kg) to the tail vein of each Brown Norway rat. Twenty-four, 72 and 168 hours after the administration, blood was collected. Then, the animal was euthanized, and the eyeballs were excised. The eyeballs were washed, and a choroid/sclera sample was then harvested.
A given amount of a 50 vol % methanol solution was added to the harvested choroid/sclera sample, which was then homogenized. Acetonitrile was further added thereto, and the mixture was stirred. The sample was centrifuged, and the supernatant was harvested. A 0.1 vol % formic acid solution was added thereto to prepare an assay sample. The drug concentration in the assay sample was measured using a liquid chromatograph-tandem mass spectrometer (LC/MS/MS).

[1] = Test Example 1: pharmacokinetics, single ocular instillation to rat, concentration in choroid/sclera; format: in vivo, Brown Norway rat; conditions: nanoparticle composition, mean particle size 1000 nm or smaller
Procedure: The nanoparticle compositions of the present invention obtained in Examples 19 and 24 and the microparticle compositions obtained in Comparative Examples 3 and 4 were evaluated for their pharmacokinetics when administered at a single dose by ocular instillation (4 to 12 μL/eye, n=2 for each group) to rats. Each nanoparticle composition was administered at a single dose by ocular instillation to the right eyes of male Brown Norway rats. Four to 7 hours after the ocular instillation, each rat was euthanized, and the right eyeball was excised. The eyeball was washed, and an eyeball tissue sample (choroid/sclera) was then harvested.
(§1) The sample was centrifuged, and the supernatant was harvested. A 10 mmol/L ammonium acetate solution was added thereto to prepare an assay sample.

[2] = Test Example 6: pharmacokinetics, single ocular instillation to cynomolgus monkey, concentration in choroid; format: in vivo; conditions: cynomolgus monkeys
Procedure: The nanoparticle composition of the present invention prepared according to Example 1 and the microparticle composition prepared according to Comparative Example 1 were evaluated for their pharmacokinetics when administered at a single dose by ocular instillation to male cynomolgus monkeys. The nanoparticle composition of the present invention prepared according to Example 1 was administered by ocular instillation (50 μL/eye) to the right eye of each animal, while the microparticle composition prepared according to Comparative Example 1 was administered by ocular instillation (50 μL/eye) to the left eye thereof. Four hours or 48 hours (n=2 for each point in time) after the ocular instillation, blood was collected. […] The eyeballs were washed, and a choroid tissue was then harvested.
as §1

[3] = Test Example 3: pharmacokinetics, single ocular instillation to rat, concentration in choroid/sclera; format: in vivo, Brown Norway rat; conditions: rats, 4 hours
Procedure: The nanoparticle compositions of the present invention prepared in accordance with Examples 1 and 26 and the nanoparticle compositions of the present invention obtained in Examples 50, 52, 53, 54, 57 and 96 were evaluated for their pharmacokinetics when administered at a single dose by ocular instillation to rats. Each nanoparticle composition was administered at a single dose by ocular instillation to the right eyes of male Brown Norway rats (5 μL/eye, n=2 for each group). Four hours after the ocular instillation, each rat was euthanized, and the right eyeball was excised. The eyeball was washed, and a choroid/sclera sample was then harvested.
as §1

[4] = Test Example 5: pharmacokinetics, single ocular instillation to rabbit, compound III in choroid/retina; format: in vivo, Kbl:Dutch rabbit; conditions: rabbits, all particle sizes evaluated
Procedure: The nanoparticle compositions obtained in Reference Examples 11 to 13 and the microparticle composition prepared according to Comparative Example 1 were evaluated for their pharmacokinetics when administered at a single dose by ocular instillation (20 μL/eye) to Kbl:Dutch rabbits. Each of the nanoparticle compositions obtained in Reference Examples 11 to 13 and the microparticle composition prepared according to Comparative Example 1 was administered at a single dose by ocular instillation to the left eyes of the animals (n=3 for each condition). 1.5 hours after the ocular instillation, each animal was euthanized, and the eyeballs were excised. The eyeballs were washed, and a choroid/retina sample was then harvested.
as §1

[5] = Test Example 10: pharmacokinetics of compounds IV to VIII, single ocular instillation to rat, concentration in choroid/sclera; format: in vivo, Brown-Norway rat; conditions: rats, 1.5 hours
Procedure: 1.5 hours after the ocular instillation, blood was collected. Then, the animal was euthanized, and both the eyeballs were excised.
The sample was centrifuged, and the supernatant was harvested.

[6] = rat, 0.2 mg/kg, Half-life in choroid and sclera

SMILES | half-life (in vivo; [6]) [days] | further results
COc1cc2ncnc(Nc3cccc(Cl)c3)c2cc1OC [AG-1478, N-(3-chlorophenyl)-N-(6,7-dimethoxyquinazolin-4-yl)amine] |  | half-life (in vivo; rat, 0.05 mg/kg, Half-life in choroid and sclera): 1.78 days
COc1cc2nccc(Oc3ccc(NC(=O)Nc4cc(C)on4)c(Cl)c3)c2cc1OC [Compound II, N-[2-chloro-4-(6,7-dimethoxyquinolin-4-yloxy)phenyl]-N′-(5-methylisoxazol-3-yl)urea hydrochloride hydrate] |  | transfer to the choroid and/or the sclera [1]: drastically enhanced transfer to the choroid and/or the sclera; concentration in the choroid, compound II vs regorafenib [2]: much higher than that of regorafenib; transfer to the choroid and/or the sclera [3]: high transfer to the choroid and/or the sclera
CNC(=O)c1cc(Oc2ccc(NC(=O)Nc3ccc(Cl)c(C(F)(F)F)c3)c(F)c2)ccn1 [Compound III, 4-{4-[3-(4-chloro-3-trifluoromethylphenyl)-ureido]-3-fluorophenoxy}pyridine-2-carboxylic acid methylamide] |  | transfer to the choroid [4]: very low
COc1cc2c(Oc3ccc4[nH]c(C)cc4c3F)ccnc2cc1OCC1(N)CC1 [Compound IV, 1-[[4-[(4-fluoro-2-methyl-1H-indol-5-yl)oxy]-6-methoxyquinolin-7-yl]oxymethyl]cyclopropan-1-amine] | 5.88 | transfer to the choroid and/or the sclera, nanoparticle vs microparticle composition [5]: moderately improved transfer
COc1cc2ncnc(Nc3ccc(F)c(Cl)c3)c2cc1NC(=O)/C=C/CN1CCCCC1 [Compound VII, (E)-N-[4-(3-chloro-4-fluoroanilino)-7-methoxyquinazolin-6-yl]-4-piperidin-1-ylbut-2-enamide] | 38.2 | Half-life in choroid and sclera (in vivo; rat, 0.2 mg/kg): 20.2 days; transfer to the choroid and/or the sclera, nanoparticle vs microparticle composition [5]: drastically improved transfer
C=CC(=O)Nc1ccc2ncnc(Nc3ccc(OCc4cccc(F)c4)c(Cl)c3)c2c1 [Compound VIII, N-[4-[[3-chloro-4-[(3-fluorobenzyl)oxy]phenyl]amino]quinazolin-6-yl]acrylamide] | 2.2 | Half-life in choroid and sclera (in vivo; rat, 0.2 mg/kg): 1.67 days; transfer to the choroid and/or the sclera, nanoparticle vs microparticle composition [5]: drastically improved transfer
C=CC(=O)Nc1cccc(Oc2nc(Nc3ccc(N4CCN(C)CC4)c(F)c3)nc3[nH]ccc23)c1 [avitinib] |  | half-life (in vivo; in vivo, 0.2 mg/kg, Half-life in choroid and sclera, EGFR inhibitors, intravenous single dose 0.2 mg/kg): 3.56 days
CNC(=O)c1ccccc1Sc1ccc2c(/C=C/c3ccccn3)n[nH]c2c1 [axitinib] | 2.39 | 
COc1cc(N2CCC(N3CCN(C)CC3)CC2)ccc1Nc1ncc(Cl)c(Nc2ccccc2P(C)(C)=O)n1 [brigatinib] |  | half-life (in vivo; rat, 0.1 mg/kg): 5.71 days
COc1cc2nccc(Oc3ccc(NC(=O)C4(C(=O)Nc5ccc(F)cc5)CC4)cc3)c2cc1OC [cabozantinib] |  | half-life (in vivo; in vivo, 0.2 mg/kg, Half-life in choroid and sclera, VEGF receptor inhibitors, intravenous single dose 0.2 mg/kg): 2.74 days
CS(=O)(=O)CCNCc1ccc(-c2ccc3ncnc(Nc4ccc(OCc5cccc(F)c5)c(Cl)c4)c3c2)o1 [lapatinib] | 10.2 | 
Cc1cc(C(=O)Nc2nc3cccc(Cl)c3n2[C@@H]2CCCCN(C(=O)/C=C/CN(C)C)C2)ccn1 [nazartinib] | 2.73 | 
C=CC(=O)N1CCC(Oc2cc3c(Nc4ccc(Cl)c(Cl)c4F)ncnc3cc2OC)CC1 [poziotinib] | 1.33 | 
COc1cc2c(Nc3ccc(Cl)c(Cl)c3F)ncnc2cc1OC[C@@H]1C[C@@H]2CN(C)C[C@@H]2C1 [tesevatinib] | 12.7 | 

Second part, led by results:

half-life (in vivo; [6]) [days] | SMILES | further results
5 | COc1cc2ncnc(Nc3cccc(Cl)c3F)c2cc1OC(=O)N1CCN(C)C[C@H]1C [AZD-3759, 4-[(3-chloro-2-fluorophenyl)amino]-7-methoxyquinazolin-6-yl (2R)-2,4-dimethylpiperazine-1-carboxylate] | 
1.76 | COc1cc2nccc(Oc3ccc(NC(=O)NC4CC4)c(Cl)c3)c2cc1C(N)=O [Compound V, 4-[3-chloro-4-(cyclopropylcarbamoylamino)phenoxy]-7-methoxyquinoline-6-carboxamide] | 
8.08 | COC(=O)c1ccc2c(c1)NC(=O)/C2=C(\Nc1ccc(N(C)C(=O)CN2CCN(C)CC2)cc1)c1ccccc1 [Compound VI, methyl (3Z)-3-[({4-[N-methyl-2-(4-methylpiperazin-1-yl)acetamido]phenyl}amino)(phenyl)methylidene]-2-oxo-2.3-dihydro-1H-indole-6-carboxylate] | transfer to the choroid and/or the sclera, nanoparticle vs microparticle composition [5]: did not differ in transfer to the choroid and/or the sclera
1.35 | CNC(=O)c1c(C)oc2cc(Oc3ncnc4cc(OC)c(OC)cc34)ccc12 [fruquintinib] | 
5.5 | COCCNCc1ccc(-c2cc3nccc(Oc4ccc(NC(=S)NC(=O)Cc5ccc(F)cc5)cc4F)c3s2)nc1 [glesatinib] | 
2.7 | C#Cc1cccc(Nc2ncnc3cc4c(cc23)OCCOCCOCCO4)c1 [icotinib] | 
1.92 | C[C@@H]1COC(Nc2ccc3ncnc(Nc4ccc(OCc5nccs5)c(Cl)c4)c3c2)=N1 [varlitinib] | 
